In patent US20070009563A1, “PROCESS FOR COATING FIBER OR FABRIC WITH INSECTICIDE USING A TEMPERATURE OF 150°C-190°C FOR DRYING” (priority 2005, published 2007):

Assays:
[1] = Quantity of deltamethrin on mosquito net fabric after drying at various temperatures; format: physicochemical; conditions: polyester net coated at 55 mg/m^2
Protocol: High temperatures in the range of 150° C.-190° C. are used in the process of fabric drying according to the present invention to create fiber stability and strengthen chemicals used for stabilizing that fiber in order to make the insecticide adhere to the fiber. However, this temperature range affects the insecticide degradation. For example, coating of a polyester mosquito net with deltamethrin requires a deltamethrin concentration of 55 mg/m^2. The material is then dried at various temperatures using the same length of time for drying.
The ratio of deltamethrin degradation is also affected by the length of time for drying.

[2] = Quantity of deltamethrin on mosquito net fabric before and after washing (WHO washing procedure standard); format: physicochemical; conditions: for Deltamethrin on the fabric, After Washing 5 Times: after 5 washes; for Deltamethrin on the fabric, After Washing 10 Times: after 10 washes; for Deltamethrin on the fabric, After Washing 15 Times: after 15 washes; for Deltamethrin on the fabric, After Washing 20 Times: after 20 washes
Text: In addition, the temperatures used for drying the fabric in the manufacturing process affect washing resistance. That is, the fabric which is dried at higher temperature can resist washing better than the fabric that is dried at lower temperature.

[3] = system: mosquitoes; assay: Efficiency test for mosquito net dipped in insecticide: 3 minutes contact, knock down and mortality; format: in vivo; conditions: for % KD, After Washing 5 Times / % mort., After Washing 5 Times: after 5 washes; for % KD, After Washing 5 Times / % KD, After Washing 10 Times / % KD, After Washing 15 Times / % KD, After Washing 20 Times / % KD, Before Washing: knock down after 60 minutes; for % mort., After Washing 5 Times / % mort., After Washing 10 Times / % mort., After Washing 15 Times / % mort., After Washing 20 Times / % mort., Before Washing: mortality after 24 hours; for % KD, After Washing 10 Times / % mort., After Washing 10 Times: after 10 washes; for % KD, After Washing 15 Times / % mort., After Washing 15 Times: after 15 washes; for % KD, After Washing 20 Times / % mort., After Washing 20 Times: after 20 washes
Protocol: The efficiency test for mosquito net dipped in insecticide/insect repellent is done by letting mosquitoes rest on the mosquito net for 3 minutes and then catching the mosquitoes, placing them in a clean container, and observing them to see which of the following conditions apply:
1. % Knock down (% KD): the number of mosquitoes that cannot move after 60 minutes, in some embodiments, must be more than 80%.
2. Mortality (% mort.): the mortality rate of mosquitoes after 24 hours, in some embodiments, must be more than 95%.

[4] = system: insects; conditions: with small dosages; cited from earlier work

For `CC1(C)[C@H](C(=O)O[C@H](C#N)c2cccc(Oc3ccccc3)c2)[C@@H]1C=C(Br)Br` [deltamethrin, Deltamethrin], the “Deltamethrin on the fabric of mosquito net after drying” value (“Deltamethrin … after drying” below) ([1]; drying temperature 150 °C) was 55 mg/m^2, the “Deltamethrin … after drying” value ([1]; drying temperature 160 °C) was 55 mg/m^2 and the “Deltamethrin … after drying” value ([1]; drying temperature 170 °C) was 55 mg/m^2. For the same compound, the “Deltamethrin … after drying” value ([1]; drying temperature 180 °C) was 37 mg/m^2, the “Deltamethrin … after drying” value ([1]; drying temperature 190 °C) was 25 mg/m^2 and the “Deltamethrin on the fabric, After Washing 5 Times” value ([2]; drying temperature 150 °C) was 40 mg/m^2. For the same compound, the “Deltamethrin on the fabric, After Washing 10 Times” value ([2]; drying temperature 150 °C) was 32 mg/m^2, the “Deltamethrin on the fabric, After Washing 15 Times” value ([2]; drying temperature 150 °C) was 16 mg/m^2 and the “Deltamethrin on the fabric, After Washing 20 Times” value ([2]; drying temperature 150 °C) was 10 mg/m^2. The “Deltamethrin on the fabric, Before Washing” value (“Deltamethrin … Before Washing” for short) ([2]; drying temperature 150 °C) was 55 mg/m^2, the “Deltamethrin on the fabric, After Washing 5 Times” value ([2]; drying temperature 160 °C) was 42 mg/m^2 and the “Deltamethrin on the fabric, After Washing 10 Times” value ([2]; drying temperature 160 °C) was 36 mg/m^2. For the same compound, the “Deltamethrin on the fabric, After Washing 15 Times” value ([2]; drying temperature 160 °C) was 19 mg/m^2, the “Deltamethrin on the fabric, After Washing 20 Times” value ([2]; drying temperature 160 °C) was 12 mg/m^2 and the “Deltamethrin … Before Washing” value ([2]; drying temperature 160 °C) was 55 mg/m^2. For the same compound, the “Deltamethrin on the fabric, After Washing 5 Times” value ([2]; drying temperature 170 °C) was 44 mg/m^2, the “Deltamethrin on the fabric, After Washing 10 Times” value ([2]; drying temperature 170 °C) was 38 mg/m^2 and the “Deltamethrin on the fabric, After Washing 15 Times” value ([2]; drying temperature 170 °C) was 22 mg/m^2. For the same compound, the “Deltamethrin on the fabric, After Washing 20 Times” value ([2]; drying temperature 170 °C) was 16 mg/m^2, the “Deltamethrin … Before Washing” value ([2]; drying temperature 170 °C) was 55 mg/m^2 and the “Deltamethrin on the fabric, After Washing 5 Times” value ([2]; drying temperature 180 °C) was 26 mg/m^2. For the same compound, the “Deltamethrin on the fabric, After Washing 10 Times” value ([2]; drying temperature 180 °C) was 20 mg/m^2, the “Deltamethrin on the fabric, After Washing 15 Times” value ([2]; drying temperature 180 °C) was 16 mg/m^2 and the “Deltamethrin on the fabric, After Washing 20 Times” value ([2]; drying temperature 180 °C) was 4 mg/m^2. For the same compound, the “Deltamethrin … Before Washing” value ([2]; drying temperature 180 °C) was 37 mg/m^2, the “Deltamethrin on the fabric, After Washing 5 Times” value ([2]; drying temperature 190 °C) was 19 mg/m^2 and the “Deltamethrin on the fabric, After Washing 10 Times” value ([2]; drying temperature 190 °C) was 15 mg/m^2. For the same compound, the “Deltamethrin on the fabric, After Washing 15 Times” value ([2]; drying temperature 190 °C) was 8 mg/m^2, the “Deltamethrin on the fabric, After Washing 20 Times” value ([2]; drying temperature 190 °C) was 4 mg/m^2 and the “Deltamethrin … Before Washing” value ([2]; drying temperature 190 °C) was 25 mg/m^2. The “% KD, After Washing 5 Times” value ([3]; drying temperature 150 °C) was 100%, the “% mort., After Washing 5 Times” value ([3]; drying temperature 150 °C) was 100% and the “% KD, After Washing 10 Times” value ([3]; drying temperature 150 °C) was 100%. The “% mort., After Washing 10 Times” value ([3]; drying temperature 150 °C) was 100%, the “% KD, After Washing 15 Times” value ([3]; drying temperature 150 °C) was 100% and the “% mort., After Washing 15 Times” value ([3]; drying temperature 150 °C) was 90%. For the same compound, the “% KD, After Washing 20 Times” value ([3]; drying temperature 150 °C) was 95%, the “% mort., After Washing 20 Times” value ([3]; drying temperature 150 °C) was 82% and the “% KD, Before Washing” value ([3]; drying temperature 150 °C) was 100%. The “% mort., Before Washing” value ([3]; drying temperature 150 °C) was 100%, the “% KD, After Washing 5 Times” value ([3]; drying temperature 160 °C) was 100% and the “% mort., After Washing 5 Times” value ([3]; drying temperature 160 °C) was 100%. The “% KD, After Washing 10 Times” value ([3]; drying temperature 160 °C) was 100%, the “% mort., After Washing 10 Times” value ([3]; drying temperature 160 °C) was 96% and the “% KD, After Washing 15 Times” value ([3]; drying temperature 160 °C) was 100%. For the same compound, the “% mort., After Washing 15 Times” value ([3]; drying temperature 160 °C) was 90%, the “% KD, After Washing 20 Times” value ([3]; drying temperature 160 °C) was 96% and the “% mort., After Washing 20 Times” value ([3]; drying temperature 160 °C) was 80%. For the same compound, the “% KD, Before Washing” value ([3]; drying temperature 160 °C) was 100%, the “% mort., Before Washing” value ([3]; drying temperature 160 °C) was 100% and the “% KD, After Washing 5 Times” value ([3]; drying temperature 170 °C) was 100%. For the same compound, the “% mort., After Washing 5 Times” value ([3]; drying temperature 170 °C) was 100%, the “% KD, After Washing 10 Times” value ([3]; drying temperature 170 °C) was 100% and the “% mort., After Washing 10 Times” value ([3]; drying temperature 170 °C) was 100%. For the same compound, the “% KD, After Washing 15 Times” value ([3]; drying temperature 170 °C) was 100%, the “% mort., After Washing 15 Times” value ([3]; drying temperature 170 °C) was 90% and the “% KD, After Washing 20 Times” value ([3]; drying temperature 170 °C) was 95%. For the same compound, the “% mort., After Washing 20 Times” value ([3]; drying temperature 170 °C) was 82%, the “% KD, Before Washing” value ([3]; drying temperature 170 °C) was 100% and the “% mort., Before Washing” value ([3]; drying temperature 170 °C) was 100%. The “% KD, After Washing 5 Times” value ([3]; drying temperature 180 °C) was 100%, the “% mort., After Washing 5 Times” value ([3]; drying temperature 180 °C) was 82% and the “% KD, After Washing 10 Times” value ([3]; drying temperature 180 °C) was 95%. The “% mort., After Washing 10 Times” value ([3]; drying temperature 180 °C) was 62%, the “% KD, After Washing 15 Times” value ([3]; drying temperature 180 °C) was 82% and the “% mort., After Washing 15 Times” value ([3]; drying temperature 180 °C) was 22%. For the same compound, the “% KD, After Washing 20 Times” value ([3]; drying temperature 180 °C) was 84%, the “% mort., After Washing 20 Times” value ([3]; drying temperature 180 °C) was 0% and the “% KD, Before Washing” value ([3]; drying temperature 180 °C) was 100%. For the same compound, the “% mort., Before Washing” value ([3]; drying temperature 180 °C) was 98%, the “% KD, After Washing 5 Times” value ([3]; drying temperature 190 °C) was 100% and the “% mort., After Washing 5 Times” value ([3]; drying temperature 190 °C) was 68%. The “% KD, After Washing 10 Times” value ([3]; drying temperature 190 °C) was 95%, the “% mort., After Washing 10 Times” value ([3]; drying temperature 190 °C) was 18% and the “% KD, After Washing 15 Times” value ([3]; drying temperature 190 °C) was 44%. For the same compound, the “% mort., After Washing 15 Times” value ([3]; drying temperature 190 °C) was 0%, the “% KD, After Washing 20 Times” value ([3]; drying temperature 190 °C) was 16% and the “% mort., After Washing 20 Times” value ([3]; drying temperature 190 °C) was 0%. The “% KD, Before Washing” value ([3]; drying temperature 190 °C) was 100%, the “% mort., Before Washing” value ([3]; drying temperature 190 °C) was 96% and the “effectiveness relative to permethrin” value [4] was “more than 30 times”.
